From patent US11512079B2, “Heterocycle substituted pyridine derivative antifungal agents” (Amplyx Pharmaceuticals, Inc., priority 2017, dated 2022)
Values after ≈ are worked out from the molar mass of the structure shown.

How the values were obtained:
Assay type in all cases: cell-based
[1] = test system: Cryptococcus neoformans H99; test: In vitro antifungal assay (Example IX), microdilution broth, MIC; conditions: minimum inhibitory concentration (≥50% inhibition), 35° C., 72 h, RPMI1640
Outline: (§1)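 CLSI broth microdilution in RPMI1640 with 2.5×10^3 cells/mL and final compound concentrations of 2-0.0019 μg/mL (1% DMSO). C. albicans 90028 plates were incubated at 35° C. for 40-48 h and C. neoformans H99 for 72 h. MIC was read as minimum inhibitory concentration, verified at 600 nm.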

Candida albicans 90028 = test: as above; conditions: minimum inhibitory concentration (≥50% inhibition), 35° C., 40-48 h, RPMI1640
Outline: as §1

Cryptococcus gattii = test: as above; conditions: minimum inhibitory concentration (≥50% inhibition), 35° C., 72 h (Cryptococcus), RPMI1640
Outline: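 Broth microdilution in RPMI1640 with 2.5×10^3 cells/mL inoculum; final compound concentrations were 2–0.0019 μg/mL, with 1% DMSO. Cryptococcus plates were incubated at 35 °C for 72 h, and growth was read at 600 nm to give the MIC.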

[2] = test system: Aspergillus fumigatus MYA3626; test: In vitro antifungal assay (Example IX), microdilution broth, MEC; conditions: minimum effective concentration (shortening of hyphae), 35° C., 40-48 h, RPMI1640
Outline: (§2)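 Spore suspensions of A. fumigatus and R. pusillus adjusted to 1-2×10^4 spores/mL in RPMI1640 and exposed to compound dilutions prepared in DMSO, by broth microdilution. MEC taken as the lowest concentration shortening hyphae versus DMSO control wells, read as for echinocandins.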

[3] = test system: Rhizomucor pusillus 46342; test: as above; conditions: minimum effective concentration (shortening of hyphae), 35° C., 40-48 h, RPMI1640
Outline: as §2

SMILES	MIC [1] [µg/mL]	MIC (Candida albicans 90028) [µg/mL]	MIC (Cryptococcus gattii) [µg/mL]	minimal effective concentration [2] [µg/mL]	minimal effective concentration [3] [µg/mL]
Nc1ncccc1-c1cc(Cc2ccc(COc3cc(F)ccc3F)cc2)no1 [compound 189, 3-(3-(4-((2,5-difluorophenoxy)methyl)benzyl)isoxazol-5-yl)pyridin-2-amine]	0.01 to 0.1 (≈ 0.0254 to 0.254 µM)	0.01 to 0.1 (≈ 0.0254 to 0.254 µM)	0.1 to 1 (≈ 0.254 to 2.54 µM)	0.01 to 0.1	> 1
Nc1ncccc1-c1cc(Cc2ccc(COc3cc(F)cc(F)c3F)cc2)no1 [compound 190, 3-(3-(4-((2,3,5-trifluorophenoxy)methyl)benzyl)isoxazol-5-yl)pyridin-2-amine]	0.1 to 1 (≈ 0.243 to 2.43 µM)	0.1 to 1 (≈ 0.243 to 2.43 µM)	0.1 to 1 (≈ 0.243 to 2.43 µM)	0.1 to 1	> 1
Nc1ncccc1-c1cc(Cc2ccc(C(=O)c3ccccc3)cc2)no1 [compound 191, (4-((5-(2-aminopyridin-3-yl)isoxazol-3-yl)methyl)phenyl)(phenyl)methanone]	0.1 to 1 (≈ 0.281 to 2.81 µM)	0.1 to 1 (≈ 0.281 to 2.81 µM)	0.1 to 1 (≈ 0.281 to 2.81 µM)	0.01 to 0.1	0.1 to 1
Nc1ncccc1-c1cc(Cc2ccc(CNc3ccc(F)c(F)c3F)cc2)no1 [compound 193, 3-(3-(4-(((2,3,4-trifluorophenyl)amino)methyl)benzyl)isoxazol-5-yl)pyridin-2-amine]	0.1 to 1 (≈ 0.244 to 2.44 µM)	0.1 to 1 (≈ 0.244 to 2.44 µM)	0.1 to 1 (≈ 0.244 to 2.44 µM)	0.01 to 0.1	0.1 to 1
Nc1ncccc1-c1cc(Cc2ccc(OCc3ccnc(Br)c3)nc2)no1 [compound 195, 3-(3-((6-((2-bromopyridin-4-yl)methoxy)pyridin-3-yl)methyl)isoxazol-5-yl)pyridin-2-amine]	0.01 to 0.1 (≈ 0.0228 to 0.228 µM)	0.1 to 1 (≈ 0.228 to 2.28 µM)	0.01 to 0.1 (≈ 0.0228 to 0.228 µM)	0.1 to 1	> 1
Nc1ncccc1-c1cc(Cc2ccc(CNc3cc(F)ccc3F)cc2)no1 [compound 196, 3-(3-(4-(((2,5-difluorophenyl)amino)methyl)benzyl)isoxazol-5-yl)pyridin-2-amine]	0.01 to 0.1 (≈ 0.0255 to 0.255 µM)	0.01 to 0.1 (≈ 0.0255 to 0.255 µM)	0.1 to 1 (≈ 0.255 to 2.55 µM)	0.1 to 1	0.1 to 1
COc1c(F)cc(F)cc1NCc1ccc(Cc2cc(-c3cccnc3N)on2)cc1 [compound 198, 3-(3-(4-(((3,5-difluoro-2-methoxyphenyl)amino)methyl)benzyl)isoxazol-5-yl)pyridin-2-amine]	0.1 to 1 (≈ 0.237 to 2.37 µM)	0.1 to 1 (≈ 0.237 to 2.37 µM)	> 1	> 1	0.1 to 1
Nc1ncccc1-c1cc(Cc2ccc(Cn3cncn3)cc2)no1 [compound 199, 3-(3-(4-((1H-1,2,4-triazol-1-yl)methyl)benzyl)isoxazol-5-yl)pyridin-2-amine]	> 1	> 1	> 1	> 1	> 1
Nc1ncccc1-c1cc(Cc2ccc(Cn3cnnc3)cc2)no1 [compound 200, 3-(3-(4-((4H-1,2,4-triazol-4-yl)methyl)benzyl)isoxazol-5-yl)pyridin-2-amine]	> 1	> 1	> 1	> 1	> 1
COc1cc(F)cc(NCc2ccc(Cc3cc(-c4cccnc4N)on3)cc2)c1 [compound 201, 3-(3-(4-(((3-fluoro-5-methoxyphenyl)amino)methyl)benzyl)isoxazol-5-yl)pyridin-2-amine]	0.1 to 1 (≈ 0.247 to 2.47 µM)	0.1 to 1 (≈ 0.247 to 2.47 µM)	> 1	0.1 to 1	> 1
Nc1ncccc1-c1cc(Cc2ccc(OCCn3cncn3)nc2)no1 [compound 202, 3-(3-((6-(2-(1H-1,2,4-triazol-1-yl)ethoxy)pyridin-3-yl)methyl)isoxazol-5-yl)pyridin-2-amine]	> 1	> 1	> 1	> 1	> 1
Nc1ncccc1-c1cc(Cc2ccc(-c3ccccn3)cc2)no1 [compound 203, 3-(3-(4-(pyridin-2-yl)benzyl)isoxazol-5-yl)pyridin-2-amine]	0.1 to 1 (≈ 0.305 to 3.05 µM)	> 1	0.1 to 1 (≈ 0.305 to 3.05 µM)	> 1	> 1
Nc1ncccc1-c1cc(Cc2ccc(-c3ccncc3)cc2)no1 [compound 204, 3-(3-(4-(pyridin-4-yl)benzyl)isoxazol-5-yl)pyridin-2-amine]	> 1	> 1	> 1	> 1	> 1
Nc1ncccc1-c1cc(Cc2ccc(-c3ccc(F)cc3)nc2)no1 [compound 205, 3-(3-((6-(4-fluorophenyl)pyridin-3-yl)methyl)isoxazol-5-yl)pyridin-2-amine]	0.1 to 1 (≈ 0.289 to 2.89 µM)	0.1 to 1 (≈ 0.289 to 2.89 µM)	> 1	> 1	0.1 to 1
Nc1ncccc1-c1cc(Cc2ccc(OCc3ccn4ccnc4c3)nc2)no1 [compound 206, 3-(3-((6-(imidazo[1,2-a]pyridine-7-ylmethoxy)pyridin-3-yl)methyl)isoxazol-5-yl)pyridin-2-amine]	> 1	> 1	> 1	> 1	> 1
COc1cc(COc2ccc(Cc3cc(-c4cccnc4N)on3)cn2)c(F)cn1 [compound 207, 3-(3-((6-((5-fluoro-2-methoxypyridin-4-yl)methoxy)pyridin-3-yl)methyl)isoxazol-5-yl)pyridin-2-amine]	0.01 to 0.1 (≈ 0.0245 to 0.245 µM)	0.1 to 1 (≈ 0.245 to 2.45 µM)	0.1 to 1 (≈ 0.245 to 2.45 µM)	0.01 to 0.1	> 1
Nc1ncccc1-c1cc(Cc2ccc(Cc3cccc(F)c3)cc2)no1 [compound 208, 3-(3-(4-(3-fluorobenzyl)benzyl)isoxazol-5-yl)pyridin-2-amine]	0.01 to 0.1 (≈ 0.0278 to 0.278 µM)	0.01 to 0.1 (≈ 0.0278 to 0.278 µM)	0.01 to 0.1 (≈ 0.0278 to 0.278 µM)	0.01 to 0.1	0.1 to 1
CC(C)(O)c1cccc(Cc2ccc(Cc3cc(-c4cccnc4N)on3)cc2)c1 [compound 209, 2-(3-(4-((5-(2-aminopyridin-3-yl)isoxazol-3-yl)methyl)benzyl)phenyl)propan-2-ol]	> 1	> 1	> 1	> 1	> 1
Nc1ncccc1-c1cc(Cc2ccc(Cc3cc(F)cc(F)c3)cc2)no1 [compound 212, 3-(3-(4-(3,5-difluorobenzyl)benzyl)isoxazol-5-yl)pyridin-2-amine]	0.01 to 0.1 (≈ 0.0265 to 0.265 µM)	0.1 to 1 (≈ 0.265 to 2.65 µM)	0.01 to 0.1 (≈ 0.0265 to 0.265 µM)	0.1 to 1	0.1 to 1
Nc1ncccc1-c1cc(Cc2ccc(OCCCc3ccccc3)nc2)no1 [compound 213, 3-(3-((6-(3-phenylpropoxy)pyridin-3-yl)methyl)isoxazol-5-yl)pyridin-2-amine]	0.1 to 1 (≈ 0.259 to 2.59 µM)	0.1 to 1 (≈ 0.259 to 2.59 µM)	0.1 to 1 (≈ 0.259 to 2.59 µM)	0.1 to 1	> 1
COc1cc(F)cc(Cc2ccc(Cc3cc(-c4cccnc4N)on3)cc2)c1 [compound 216, 3-(3-(4-(3-fluoro-5-methoxybenzyl)benzyl)isoxazol-5-yl)pyridin-2-amine]	0.1 to 1 (≈ 0.257 to 2.57 µM)	0.1 to 1 (≈ 0.257 to 2.57 µM)	0.1 to 1 (≈ 0.257 to 2.57 µM)	0.1 to 1	> 1
Nc1ncccc1-c1cc(Cc2ccc(OCc3ccncc3Cl)nc2)no1 [compound 218, 3-(3-((6-((3-chloropyridin-4-yl)methoxy)pyridin-3-yl)methyl)isoxazol-5-yl)pyridin-2-amine]	> 1	0.1 to 1 (≈ 0.254 to 2.54 µM)	> 1	0.1 to 1	> 1
Nc1ncccc1-c1cc(Cc2ccc(OCc3csc(Cl)n3)nc2)no1 [compound 220, 3-(3-((6-((2-chlorothiazol-4-yl)methoxy)pyridin-3-yl)methyl)isoxazol-5-yl)pyridin-2-amine]	0.1 to 1 (≈ 0.25 to 2.5 µM)	0.1 to 1 (≈ 0.25 to 2.5 µM)	0.1 to 1 (≈ 0.25 to 2.5 µM)	0.1 to 1	0.1 to 1
Nc1ncccc1-c1cc(Cc2ccc(OCc3ccc(Cl)s3)nc2)no1 [compound 221, 3-(3-((6-((5-chlorothiophen-2-yl)methoxy)pyridin-3-yl)methyl)isoxazol-5-yl)pyridin-2-amine]	0.01 to 0.1 (≈ 0.0251 to 0.251 µM)	0.1 to 1 (≈ 0.251 to 2.51 µM)	0.1 to 1 (≈ 0.251 to 2.51 µM)	0.01 to 0.1	0.1 to 1
Nc1ncccc1-c1cc(Cc2ccc(OCc3cccc(Cl)n3)nc2)no1 [compound 222, 3-(3-((6-((6-chloropyridin-2-yl)methoxy)pyridin-3-yl)methyl)isoxazol-5-yl)pyridin-2-amine]	0.01 to 0.1 (≈ 0.0254 to 0.254 µM)	0.01 to 0.1 (≈ 0.0254 to 0.254 µM)	0.1 to 1 (≈ 0.254 to 2.54 µM)	0.01 to 0.1	> 1
